Measured values published in US20230081390A1, “INHIBITORS OF RAF KINASES” (Kinnate Biopharma Inc., priority 2019, published 2023).

target: human RAF1 (Homo sapiens, UniProt P04049); assay: Protein kinase assay (33P-ATP filter binding), human RAF1, 10-dose IC50; assay type: biochemical; details: MEK1 (K97R) substrate 3 micromolar, ATP 10 micromolar, read-out: RAF-1 IC50
Method: In brief, for each reaction, kinase and substrate were mixed in a buffer containing 20 mM HEPES (pH 7.5), 10 mM MgCl2, 1 mM EGTA, 0.02% Brij35, 0.02 mg/mL BSA, 0.1 mM Na3VO4, 2 mM DTT, and […]. All compounds were solubilized in DMSO. Compounds were then added to each reaction mixture via acoustic dispense using an ECHO 550 nanoliter dispenser. For human RAF1 testing, human MEK1 (K97R) was used as a substrate at a concentration of 3 micromolar, with a final ATP concentration of 10 micromolar. […] Reactions were carried out at room temperature for 2 hr and spotted onto P81 ion exchange cellulose chromatography paper (Reaction Biology). […] The percent remaining kinase activity relative to a vehicle-containing (DMSO) kinase reaction was calculated for each kinase/inhibitor pair. IC50 values were calculated using Prism 5 (GraphPad).

Chain of human RAF1 (P04049 whole entry): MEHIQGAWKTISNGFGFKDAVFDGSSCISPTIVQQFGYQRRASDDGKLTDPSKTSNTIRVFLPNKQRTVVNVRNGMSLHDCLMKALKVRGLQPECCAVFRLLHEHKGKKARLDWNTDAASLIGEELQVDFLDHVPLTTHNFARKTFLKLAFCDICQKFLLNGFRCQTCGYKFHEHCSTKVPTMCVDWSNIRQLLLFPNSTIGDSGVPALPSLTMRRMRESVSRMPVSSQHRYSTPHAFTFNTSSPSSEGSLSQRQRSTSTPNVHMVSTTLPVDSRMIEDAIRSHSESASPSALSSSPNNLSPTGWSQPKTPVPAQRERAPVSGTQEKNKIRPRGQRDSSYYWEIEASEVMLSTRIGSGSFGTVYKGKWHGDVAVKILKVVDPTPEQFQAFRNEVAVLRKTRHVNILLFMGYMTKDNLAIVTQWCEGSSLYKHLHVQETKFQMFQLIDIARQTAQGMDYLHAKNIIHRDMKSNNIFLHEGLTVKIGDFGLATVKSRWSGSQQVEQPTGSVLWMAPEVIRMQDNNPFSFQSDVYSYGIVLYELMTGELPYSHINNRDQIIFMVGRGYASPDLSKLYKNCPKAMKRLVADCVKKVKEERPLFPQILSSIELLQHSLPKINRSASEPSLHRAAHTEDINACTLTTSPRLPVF

| Compound | IC50 |
| --- | --- |
| Cc1cc(F)c(NC(=O)N2C[C@H](CF)[C@@H](C(F)(F)F)C2)cc1-c1cc(OCCO)nc(N2CCOCC2)c1 (relative stereo) [Example 39, (trans)-N-[2-fluoro-5-[2-(2-hydroxyethoxy)-6-(morpholin-4-yl)pyridin-4-yl]-4-methylphenyl]-3-(fluoromethyl)-4-(trifluoromethyl) pyrrolidine-1-carboxamide] | < 10 nM |
| Cc1ccc(NC(=O)N2CC[C@@H](C(F)(F)F)C2)cc1-c1cnc(OCCO)c(N2CCOCC2)c1 (single isomer, unassigned) [Example 14] | < 10 nM |
| Cc1ccc(NC(=O)N2CC[C@H](C(F)(F)F)C2)cc1-c1cnc(OCCO)c(N2CCOCC2)c1 (single isomer, unassigned) [Example 15] | < 10 nM |
| Cc1ncc(NC(=O)N2CC[C@@H](C(F)(F)F)C2)cc1-c1cnc(OCCO)c(N2CCOCC2)c1 (single isomer, unassigned) [Example 16] | < 10 nM |
| Cc1ncc(NC(=O)N2CC[C@H](C(F)(F)F)C2)cc1-c1cnc(OCCO)c(N2CCOCC2)c1 (single isomer, unassigned) [Example 17] | < 10 nM |
| Cc1cc(F)c(NC(=O)N2CC[C@@H](C(F)(F)F)C2)cc1-c1cc(OCCO)nc(N2CCOC[C@H]2C)c1 (single isomer, unassigned) [Example 29] | < 10 nM |
| Cc1cc(F)c(NC(=O)N2CC[C@H](C(F)(F)F)C2)cc1-c1cc(OCCO)nc(N2CCOC[C@H]2C)c1 (single isomer, unassigned) [Example 30] | < 10 nM |
| Cc1cc(F)c(NC(=O)N2CC[C@@H](C(F)(F)F)C2)cc1-c1cnc(OC2CCOCC2)c(N2CCOCC2)c1 (single isomer, unassigned) [Example 31] | < 10 nM |
| Cc1cc(F)c(NC(=O)N2CC[C@H](C(F)(F)F)C2)cc1-c1cnc(OC2CCOCC2)c(N2CCOCC2)c1 (single isomer, unassigned) [Example 32] | < 10 nM |
| Cc1cc(F)c(NC(=O)N2CC[C@H](C(C)(F)F)C2)cc1-c1cc(OCCO)nc(N2CCOCC2)c1 (single isomer, unassigned) [Example 33] | < 10 nM |
| Cc1cc(F)c(NC(=O)N2CC[C@@H](C(C)(F)F)C2)cc1-c1cc(OCCO)nc(N2CCOCC2)c1 (single isomer, unassigned) [Example 34] | < 10 nM |
| Cc1cc(F)c(NC(=O)N2CC[C@H](C3CC3)C2)cc1-c1cc(OCCO)nc(N2CCOCC2)c1 (single isomer, unassigned) [Example 47] | < 10 nM |

Second part, the compound after the results:

| IC50 | Compound |
| --- | --- |
| < 10 nM | Cc1cc(F)c(NC(=O)N2CC[C@@H](C3CC3)C2)cc1-c1cc(OCCO)nc(N2CCOCC2)c1 (single isomer, unassigned) [Example 48] |
| < 10 nM | Cc1cc(F)c(NC(=O)N2C[C@@H]3C[C@]3(C(F)(F)F)C2)cc1-c1cc(OCCO)nc(N2CCOCC2)c1 (single isomer, unassigned) [Example 50] |
| < 10 nM | Cc1cc(F)c(NC(=O)N2C[C@H]3C[C@@]3(C(F)(F)F)C2)cc1-c1cc(OCCO)nc(N2CCOCC2)c1 (single isomer, unassigned) [Example 51] |
| < 10 nM | Cc1cc(F)c(NC(=O)N2CC(C)C(C(F)(F)F)C2)cc1-c1cc(OCCO)nc(N2CCOCC2)c1 (single isomer, unassigned) [Example 52, N-[2-fluoro-5-[2-(2-hydroxyethoxy)-6-(morpholin-4-yl)pyridin-4-yl]-4-methylphenyl]-3-methyl-4-(trifluoromethyl)pyrrolidine-1-carboxamide] |
| < 10 nM | Cc1cc(F)c(NC(=O)N2CC(C)C(C(F)(F)F)C2)cc1-c1cc(OCCO)nc(N2CCOCC2)c1 (single isomer, unassigned) [Example 53, N-[2-fluoro-5-[2-(2-hydroxyethoxy)-6-(morpholin-4-yl)pyridin-4-yl]-4-methylphenyl]-3-methyl-4-(trifluoromethyl)pyrrolidine-1-carboxamide] |
| < 10 nM | Cc1cc(F)c(NC(=O)N2CCO[C@@H](C(C)(F)F)C2)cc1-c1cc(OCCO)nc(N2CCOCC2)c1 (single isomer, unassigned) [Example 58] |
| < 10 nM | Cc1cc(F)c(NC(=O)N2CCO[C@@H](C(C)(F)F)C2)cc1-c1cc(OCCO)nc(N2CCOCC2)c1 (single isomer, unassigned) [Example 59] |
| < 10 nM | Cc1cc(F)c(NC(=O)N2C[C@H](C(F)(F)F)C[C@@H]2C)cc1-c1cc(OCCO)nc(N2CCOCC2)c1 (single isomer, unassigned) [Example 60, (cis)-N-[2-fluoro-5-[2-(2-hydroxyethoxy)-6-(morpholin-4-yl)pyridin-4-yl]-4-methylphenyl]-2-methyl-4-(trifluoromethyl)pyrrolidine-1-carboxamide] |
| < 10 nM | Cc1cc(F)c(NC(=O)N2C[C@H](C(F)(F)F)C[C@@H]2C)cc1-c1cc(OCCO)nc(N2CCOCC2)c1 (single isomer, unassigned) [Example 61, (cis)-N-[2-fluoro-5-[2-(2-hydroxyethoxy)-6-(morpholin-4-yl)pyridin-4-yl]-4-methylphenyl]-2-methyl-4-(trifluoromethyl)pyrrolidine-1-carboxamide] |
| < 10 nM | Cc1cc(F)c(NC(=O)N2CC[C@]3(C2)CC3(F)F)cc1-c1cc(OCCO)nc(N2CCOCC2)c1 (single isomer, unassigned) [Example 62] |
| < 10 nM | Cc1cc(F)c(NC(=O)N2CC[C@@]3(C2)CC3(F)F)cc1-c1cc(OCCO)nc(N2CCOCC2)c1 (single isomer, unassigned) [Example 63] |
| 100 to 1000 nM | Cc1cc(F)c(NC(=O)N2CCC(C(F)(F)F)C2C)cc1-c1cc(OCCO)nc(N2CCOCC2)c1 (single isomer, unassigned) [Example 64, N-[2-fluoro-5-[2-(2-hydroxyethoxy)-6-(morpholin-4-yl)pyridin-4-yl]-4-methylphenyl]-2-methyl-3-(trifluoromethyl)pyrrolidine-1-carboxamide] |
| 10 to 100 nM | Cc1cc(F)c(NC(=O)N2CCC(C(F)(F)F)C2C)cc1-c1cc(OCCO)nc(N2CCOCC2)c1 (single isomer, unassigned) [Example 65, N-[2-fluoro-5-[2-(2-hydroxyethoxy)-6-(morpholin-4-yl)pyridin-4-yl]-4-methylphenyl]-2-methyl-3-(trifluoromethyl)pyrrolidine-1-carboxamide] |
| < 10 nM | Cc1cc(F)c(NC(=O)N2CCC(C(F)(F)F)C2C)cc1-c1cc(OCCO)nc(N2CCOCC2)c1 (single isomer, unassigned) [Example 66, N-[2-fluoro-5-[2-(2-hydroxyethoxy)-6-(morpholin-4-yl)pyridin-4-yl]-4-methylphenyl]-2-methyl-3-(trifluoromethyl)pyrrolidine-1-carboxamide] |
| < 10 nM | Cc1cc(F)c(NC(=O)N2CCC(C(F)(F)F)C2C)cc1-c1cc(OCCO)nc(N2CCOCC2)c1 (single isomer, unassigned) [Example 67, N-[2-fluoro-5-[2-(2-hydroxyethoxy)-6-(morpholin-4-yl)pyridin-4-yl]-4-methylphenyl]-2-methyl-3-(trifluoromethyl)pyrrolidine-1-carboxamide] |
| < 10 nM | Cc1cc(F)c(NC(=O)N2CCC3C2C3C(F)(F)F)cc1-c1cc(OCCO)nc(N2CCOCC2)c1 (single isomer, unassigned) [Example 68, N-[2-fluoro-5-[2-(2-hydroxyethoxy)-6-(morpholin-4-yl)pyridin-4-yl]-4-methylphenyl]-6-(trifluoromethyl)-2-azabicyclo[3.1.0]hexane-2-carboxamide] |
